Assay results: patent US11878965B2, “Inhibitors of peptidylarginine deiminases” (Gilead Sciences, Inc., priority 2020, dated 2024)

Molecular target: human PAD4 (Homo sapiens (Human), UniProt Q9UM07)
Assay: In Vitro PAD4 BAEE Biochemical Assay
Details: geometric mean of multiple experiments
Outline: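 Deimination of BAEE substrate (3 mM) measured as ammonia via o-phthalaldehyde–DTT isoindole fluorescence, 405/535 nm. Tag-free bacterially expressed human PAD4 at 5 nM with 2 mM calcium chloride, pH 7.6 MOPS buffer, 30 min compound preincubation then 2 h reaction, both at 25 °C.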

[1] = recombinant PAD4 5 nM, 2 mM calcium chloride, 3 mM BAEE substrate

Chain of human PAD4 (Q9UM07 2-663): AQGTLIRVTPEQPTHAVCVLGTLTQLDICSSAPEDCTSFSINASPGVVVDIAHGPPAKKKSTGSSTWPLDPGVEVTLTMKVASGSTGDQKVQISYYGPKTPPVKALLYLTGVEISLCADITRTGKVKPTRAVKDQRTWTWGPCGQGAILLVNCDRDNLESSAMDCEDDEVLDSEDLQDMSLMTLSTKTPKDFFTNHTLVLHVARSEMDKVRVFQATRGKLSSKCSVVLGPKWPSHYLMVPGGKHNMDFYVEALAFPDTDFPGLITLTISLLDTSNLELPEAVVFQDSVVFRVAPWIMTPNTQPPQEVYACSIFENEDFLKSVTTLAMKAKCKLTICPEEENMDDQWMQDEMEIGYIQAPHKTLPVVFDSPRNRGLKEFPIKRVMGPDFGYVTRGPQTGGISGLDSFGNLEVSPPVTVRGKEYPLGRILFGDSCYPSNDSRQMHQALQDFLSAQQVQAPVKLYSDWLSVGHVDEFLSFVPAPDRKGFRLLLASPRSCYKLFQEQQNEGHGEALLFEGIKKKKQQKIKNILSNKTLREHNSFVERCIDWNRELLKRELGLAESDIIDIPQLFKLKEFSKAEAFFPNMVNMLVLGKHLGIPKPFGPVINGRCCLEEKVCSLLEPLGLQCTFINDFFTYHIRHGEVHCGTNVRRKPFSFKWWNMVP

| Compound | IC50 [1] | IC50 (human PAD4, BAEE substrate, 5 nM PAD4, 2 mM calcium chloride, 3 mM BAEE) |
| --- | --- | --- |
| COc1cc(C(=O)N2C[C@H](N)[C@@H]3CC[C@H]2C3)cc2nc(-c3cc4ccc([C@@H](C)NC(=O)[C@]5(C)CC5(F)F)nc4n3CC3CC3)n(C)c12 [Example 331, (S)-N-((R)-1-(2-(5-((1S,4R,5R)-4-amino-2-azabicyclo[3.2.1]octane-2-carbonyl)-7-methoxy-1-methyl-1H-benzo[d]imidazol-2-yl)-1-(cyclopropylmethyl)-1H-pyrrolo[2,3-b]pyridin-6-yl)ethyl)-2,2-difluoro-1-methylcyclopropane-1-carboxamide] | 71 nM | – |
| COc1cc(C(=O)N2C[C@H](N)[C@@H]3CC[C@H]2C3)cc2nc(-c3cc4ccc([C@@H](C)NC(=O)[C@@]5(C)CC5(F)F)nc4n3CC3CC3)n(C)c12 [Example 332, (R)-N-((R)-1-(2-(5-((1S,4R,5R)-4-amino-2-azabicyclo[3.2.1]octane-2-carbonyl)-7-methoxy-1-methyl-1H-benzo[d]imidazol-2-yl)-1-(cyclopropylmethyl)-1H-pyrrolo[2,3-b]pyridin-6-yl)ethyl)-2,2-difluoro-1-methylcyclopropane-1-carboxamide] | 84.2 nM | – |
| (S)-2-(1-(cyclopropylmethyl)-6- ((N-(difluoromethyl) methyl)sulfonamido)-1H- pyrrolo[2,3-b]pyridin-2-yl)- N-(4,4-difluoropiperidin- 3-yl)-6-fluoro- 1-methyl-1H-benzo[d] imidazole-5-carboxamide [Example 92] | – | 617 nM |
